Our source for the pest or weed control values is patent publication US20210403435A1, “HERBICIDAL COMPOUNDS” (SYNGENTA CROP PROTECTION AG, priority 2018, published 2021).

Common to all, as to experiment: Post-emergence efficacy, glasshouse, evaluated after 13 days
Common to all, as to type: in vivo

Experiment [1] relates to Lolium perenne (LOLPE). The settings on record: Lolium perenne, 312 h; post-emergence application, 500 g/Ha, evaluated after 13 days; read-out: Control of weed species LOLPE (100=total damage to plant; 0=no damage to plant). The essentials: (§1)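 Injury assessed 13 days after a post-emergence spray, 0 = no damage and 100 = total damage. Spray liquid: compound in acetone/IF50 (Emulsogen EL360, N-methylpyrrolidone, Dowanol DPM), diluted with 0.25% or 1% sodium lauryl ether sulphate plus 1% ammonium sulphate.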

Experiment [2] deals with Euphorbia heterophylla (EPHHL). The following applies: Euphorbia heterophylla, 312 h; post-emergence application, 500 g/Ha, evaluated after 13 days; read-out: Control of weed species EPHHL (100=total damage to plant; 0=no damage to plant). The essentials: as §1
Experiment [3] concerns Eleusine indica (ELEIN). The settings on record: Eleusine indica, 312 h; post-emergence application, 500 g/Ha, evaluated after 13 days; read-out: Control of weed species ELEIN (100=total damage to plant; 0=no damage to plant). In short, it runs like this:
as §1

Experiment [4] deals with Digitaria sanguinalis (DIGSA). The following applies: Digitaria sanguinalis, 312 h; post-emergence application, 500 g/Ha, evaluated after 13 days; read-out: Control of weed species DIGSA (100=total damage to plant; 0=no damage to plant). In short, it runs like this:
as §1

The test system of experiment [5] is Chenopodium album (CHEAL). The following applies: Chenopodium album, 312 h; post-emergence application, 500 g/Ha, evaluated after 13 days; read-out: Control of weed species CHEAL (100=total damage to plant; 0=no damage to plant). In short, it runs like this:
as §1

The subject of experiment [6] is Echinochloa crus-galli (ECHCG). The settings on record: Echinochloa crus-galli, 312 h; post-emergence application, 500 g/Ha, evaluated after 13 days; read-out: Control of weed species ECHCG (100=total damage to plant; 0=no damage to plant). The essentials: as §1
In experiment [7] the test system is Amaranthus palmeri (AMAPA). The settings on record: Amaranthus palmeri, 312 h; post-emergence application, 500 g/Ha, evaluated after 13 days; read-out: Control of weed species AMAPA (100=total damage to plant; 0=no damage to plant). In short, it runs like this: as §1
In experiment [8] the test system is Ipomoea hederacea (IPOHE). The settings on record: Ipomoea hederacea, 312 h; post-emergence application, 500 g/Ha, evaluated after 13 days; read-out: Control of weed species IPOHE (100=total damage to plant; 0=no damage to plant). The essentials: as §1
Experiment [9] concerns Setaria faberi (SETFA). The following applies: Setaria faberi, 312 h; post-emergence application, 500 g/Ha, evaluated after 13 days; read-out: Control of weed species SETFA (100=total damage to plant; 0=no damage to plant). The essentials: as §1

With `O=C(O)CC[n+]1ccc(C(=O)NC2CC2)cn1` [Compound A31], the pest or weed control at 500 g/ha in [1] stood at 70%; in experiment [2], 100%; in experiment [3], 100%; in [4] it was 100%; in experiment [5], 100%; in [6], 70%. Further, the pest or weed control at 500 g/ha came out at 100% in experiment [7], 30% in [8] and 100% in [9].

With `CN(CCS(C)(=O)=O)C(=O)c1cc[n+](CCC(=O)O)nc1` [Compound A135], the pest or weed control at 500 g/ha was 70% in experiment [1]; 80% in experiment [2]; 40% in experiment [3]; 90% in experiment [4]; 60% in experiment [5]; 60% in experiment [6]. Also, the pest or weed control at 500 g/ha in [7] was 80%; in [8], 30%; in [9], 100%.

Turning to `CCNC(=O)c1cc[n+](CCNS(=O)(=O)C(F)(F)F)nc1` [Compound A73], the pest or weed control at 500 g/ha is 60% in experiment [1]; 90% in [2]; 90% in experiment [3]; 90% in experiment [4]; 90% in experiment [5]; 80% in experiment [6]. Besides, the pest or weed control at 500 g/ha in experiment [7] was found to be 100%; in experiment [8], 80%; in experiment [9] it was 60%.

Take `O=C(NCc1ccc(F)cc1)c1cc[n+](CCS(=O)(=O)[O-])nc1` [Compound A23]: the pest or weed control at 500 g/ha in experiment [1] stood at 20%; in experiment [2], 60%; in [3], 60%; in [4], 60%; in experiment [5], 70%; in experiment [6] it was 70%. Also, the pest or weed control at 500 g/ha in experiment [7] came to 100%; in experiment [8], 50%; in experiment [9] it was 70%.

Regarding `CN(C)C(=O)c1cn[n+](CCS(=O)(=O)O)cc1-c1ccccc1` [Compound A64], the pest or weed control at 500 g/ha turned out to be 20% in experiment [1]; 40% in experiment [2]; 40% in [3]; 40% in experiment [4]; 30% in [5]; 50% in experiment [6]. The pest or weed control at 500 g/ha in experiment [7] came to 100%; in experiment [8], 30%; in experiment [9] it was 30%.

On to `CN(C)C(=O)c1cc[n+](CCC(=O)O)nc1` [Compound A10], for which the pest or weed control at 500 g/ha in experiment [1] is 10%; in [2], 100%; in experiment [3], 80%; in experiment [4] it was 90%; in experiment [5], 100%; in experiment [6], 70%. Besides, the pest or weed control at 500 g/ha was found to be 100% in experiment [7], 60% in experiment [8] and 90% in experiment [9].

As for `CCNC(=O)c1cc[n+](CCNS(=O)(=O)[O-])nc1` [Compound A81], the pest or weed control at 500 g/ha came out at 90% in experiment [1]; 100% in [2]; 100% in experiment [3]; 90% in experiment [4]; 100% in experiment [5]; 100% in experiment [6]. Also, the pest or weed control at 500 g/ha in experiment [7] is 100%; in experiment [8] it was 90%; in experiment [9], 100%.
